Patent publication US10696677B2 (Research Triangle Institute, priority 2016, dated 2020)
Like-named read-outs stand apart in the source and are kept apart here.

Assays:
hCB1 [1] = molecular target: T1, hCB1 (Homo sapiens, UniProt P21554); assay: functional fluorescent CB1 activated Gαq16-coupled intracellular calcium mobilization assay in CHO-K1 cells; assay type: cell-based; design: expressed in transfected cells; host or cells: CHO-K1 (membranes); settings: average of 3-6 measurements, read-out: Apparent antagonist dissociation constant (Ke) at hCB1
T1 sequence (P21554 whole entry): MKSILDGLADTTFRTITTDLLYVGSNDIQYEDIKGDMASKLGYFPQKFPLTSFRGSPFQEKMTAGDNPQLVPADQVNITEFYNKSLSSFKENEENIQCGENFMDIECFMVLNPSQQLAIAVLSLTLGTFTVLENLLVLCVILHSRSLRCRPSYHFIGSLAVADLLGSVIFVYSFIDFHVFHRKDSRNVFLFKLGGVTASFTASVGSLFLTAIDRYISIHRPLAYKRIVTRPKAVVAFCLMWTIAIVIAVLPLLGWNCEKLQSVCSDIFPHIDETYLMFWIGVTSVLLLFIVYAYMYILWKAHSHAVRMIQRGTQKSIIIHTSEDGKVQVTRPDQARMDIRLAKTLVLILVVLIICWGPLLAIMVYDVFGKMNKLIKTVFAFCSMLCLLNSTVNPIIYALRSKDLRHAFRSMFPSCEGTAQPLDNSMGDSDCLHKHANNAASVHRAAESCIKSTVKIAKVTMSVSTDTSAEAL

hCB1 [2] = molecular target: T1, hCB1; assay: radioligand displacement binding at CB1 (membranes of CHO-K1 cells over-expressing receptor); settings: for CB2 Ki/CB1 Ki selectivity ratio: CB1 versus CB2
Description: (§1) All compounds were characterized by H^1 NMR and evaluated using a calcium mobilization assay. […] Further characterization of select compounds was performed using radioligand displacement of [3H]1 and equilibrium dissociation constant (Ki) values were determined.

hCB2 = hCB2 (Homo sapiens, UniProt P34972); assay: radioligand displacement binding at CB2 ([3H]CP55940, membranes of CHO-K1 cells over-expressing receptor)
hCB2, sequence (P34972 whole entry): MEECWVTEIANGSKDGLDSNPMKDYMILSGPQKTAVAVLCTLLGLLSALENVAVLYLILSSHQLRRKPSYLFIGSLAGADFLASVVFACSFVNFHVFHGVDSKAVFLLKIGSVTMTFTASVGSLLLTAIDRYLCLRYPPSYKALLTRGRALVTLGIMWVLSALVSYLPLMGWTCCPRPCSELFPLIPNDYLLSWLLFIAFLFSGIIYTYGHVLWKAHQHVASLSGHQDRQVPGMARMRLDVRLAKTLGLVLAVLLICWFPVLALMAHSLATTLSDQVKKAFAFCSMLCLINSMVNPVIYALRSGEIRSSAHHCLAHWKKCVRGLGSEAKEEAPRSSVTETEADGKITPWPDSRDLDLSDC
Description: as §1

MDCK = MDCK BBB Assay; assay type: in vitro ADME; settings: for % Permeable: MDCK BBB assay; for MDCK BBB Assay (Basolateral/Apical Peak Area Ratio) Mean: MDCK cells
[3] = read-out: Binding affinity (Ki) at hCB1, radioligand displacement, CHO-K1 membranes, average of 3-6 measurements
[4] = read-out: Binding affinity (Ki) at hCB2, displacement of [3H]CP55940, CHO-K1 membranes, average of 3-6 measurements

Kb (hCB1 [1]) [nM] | Ki (hCB2) [nM] | % Permeable (MDCK) [%] | MDCK BBB Assay (Basolateral/Apical Peak Area Ratio) Mean (MDCK) | CB2 Ki/CB1 Ki selectivity ratio (hCB1 [2]) | Ki (hCB1 [2]) [nM] | SMILES | further results
140 |  |  |  |  |  | FC(F)(F)c1ccc(-n2c(-c3ccccc3Cl)nc3c(N4CCN(Cc5ccccc5Cl)CC4)ncnc32)cn1 [Compound 47, 8-(2-Chlorophenyl)-6-{4-[(2-chlorophenyl)methyl]piperazin-1-yl}-9-[6-(trifluoromethyl)pyridin-3-yl]-9H-purine] | melting point: 189 to 190 °C
12 |  |  |  |  |  | Clc1ccc(-n2c(-c3ccccc3Cl)nc3c(N4CCC(c5nc6ccccc6[nH]5)CC4)ncnc32)cc1 [Compound 30, 6-[4-(1H-benzimidazol-2-yl)piperidin-1-yl]-8-(2-chlorophenyl)-9-(4-chlorophenyl)-9H-purine] | Ki (hCB1 [2]; [3]): 47 nM
140 |  |  |  |  |  | Cn1cc(-n2c(-c3ccccc3Cl)nc3c(N4CCC(NS(=O)(=O)c5ccc(F)c(F)c5)CC4)ncnc32)cn1 [Compound 12, N-{1-[8-(2-Chlorophenyl)-9-(1-methyl-1H-pyrazol-4-yl)-9H-purin-6-yl]piperidin-4-yl}-3,4-difluorobenzene-1-sulfonamide] | melting point: 162 to 164 °C
21 |  |  |  |  | 4 | O/N=C(/c1ccc(F)cc1)C1CCN(c2ncnc3c2nc(-c2ccccc2Cl)n3-c2ccc(Cl)cc2)CC1 [Compound 29, (E)-{1-[8-(2-chlorophenyl)-9-(4-chlorophenyl)-9H-purin-6-yl]piperidin-4-yl}(4-fluorophenyl)methanone oxime] | 
54 | 4600 | 0 | 0.001 | 2300 | 2 | Clc1ccc(-n2c(-c3ccccc3Cl)nc3c(N4CCC(Nc5ccccn5)CC4)ncnc32)cc1 [Compound 32, N-{1-[8-(2-chlorophenyl)-9-(4-chlorophenyl)-9H-purin-6-yl]piperidin-4-yl}pyridin-2-amine] | 
869 | 1570 |  |  | 5.8 | 272 | CCCCC(=O)NC1(c2ccccc2)CCN(c2ncnc3c2nc(-c2ccncc2)n3-c2ccc(Cl)cc2)CC1 [Compound 55, N-{1-[9-(4-chlorophenyl)-8-pyridin-4-yl-9H-purin-6-yl]-4-phenylpiperidin-4-yl}pentanamide] | 
1.1 |  | 0 | 0.0006 |  |  | O=S(=O)(NC1CCN(c2ncnc3c2nc(-c2ccccc2Cl)n3-c2ccc(Cl)cc2)CC1)c1ccc(F)cc1 [Compound 4, N-{1-[8-(2-Chlorophenyl)-9-(4-chlorophenyl)-9H-purin-6-yl]piperidin-4-yl}-4-fluorobenzene-1-sulfonamide] | melting point: 196 to 197 °C
27.8 | 1150 | 41 | 0.409 | 126 | 9.2 | CCCCC(=O)NC1CCN(c2ncnc3c2nc(-c2ccncc2Cl)n3-c2ccc(Cl)cc2)CC1 [Compound 91, N-{1-[9-(4-chlorophenyl)-8-(3-chloropyridin-4-yl)-9H-purin-6-yl]piperidin-4-yl}pentanamide] | 
8 | 790 |  |  | 30 | 39 | O=C(Nc1ccccc1)N1CCN(c2ncnc3c2nc(-c2ccccc2Cl)n3-c2ccc(C(F)(F)F)nc2)CC1 [Compound 45] | 
320 |  |  |  |  |  | Cc1cc(-n2c(-c3ccccc3Cl)nc3c(N4CCN(Cc5ccccc5Cl)CC4)ncnc32)no1 [Compound 49, 8-(2-chlorophenyl)-6-{4-[(2-chlorophenyl)methyl]piperazin-1-yl}-9-(5-methyl-1,2-oxazol-3-yl)-9H-purine] | melting point: 79 to 81 °C
11.3 | 484 | 1 | 0.005 | 101 | 4.8 | N#Cc1ccc(N2CCN(c3ncnc4c3nc(-c3ccccc3Cl)n4-c3ccc(Cl)cc3)CC2)nc1 [Compound 3, 6-{4-[8-(2-Chlorophenyl)-9-(4-chlorophenyl)-9H-purin-6-yl]piperazin-1-yl}pyridine-3-carbonitrile] | 
380 |  |  |  |  |  | Cn1ccc(-n2c(-c3ccccc3Cl)nc3c(N4CCN(Cc5ccccc5Cl)CC4)ncnc32)n1 [Compound 51, 8-(2-Chlorophenyl)-6-{4-[(2-chlorophenyl)methyl]piperazin-1-yl}-9-(1-methyl-1H-pyrazol-3-yl)-9H-purine] | melting point: 150 to 152 °C
440 |  |  |  |  |  | NC(=O)c1ccc(-n2c(-c3ccccc3Cl)nc3c(N4CCN(Cc5ccccc5Cl)CC4)ncnc32)cc1 [Compound 48, 4-[8-(2-chlorophenyl)-6-{4-[(2-chlorophenyl)methyl]piperazin-1-yl}-9H-purin-9-yl]benzamide] | melting point: 120 to 122 °C
59 |  |  |  |  |  | Clc1ccc(-n2c(-c3ccccc3Cl)nc3c(N4CCC(NCc5ccccc5)CC4)ncnc32)cc1 [Compound 37, N-benzyl-1-[8-(2-chlorophenyl)-9-(4-chlorophenyl)-9H-purin-6-yl]piperidin-4-amine] | 
360 |  |  |  |  |  | Clc1ccc(-n2c(-c3ccccc3Cl)nc3c(N4CCC(NCc5ccncc5)CC4)ncnc32)cc1 [Compound 38, 1-[8-(2-chlorophenyl)-9-(4-chlorophenyl)-9H-purin-6-yl]-N-(pyridin-4-ylmethyl)piperidin-4-amine] | 
1.4 |  | 0 | 0 |  |  | Clc1ccc(-n2c(-c3ccccc3Cl)nc3c(N4CCC(Nc5ccccc5)CC4)ncnc32)cc1 [Compound 31, 1-[8-(2-chlorophenyl)-9-(4-chlorophenyl)-9H-purin-6-yl]-N-phenylpiperidin-4-amine] | 
0.1 |  |  |  |  |  | O=S(=O)(NC1CCN(c2ncnc3c2nc(-c2ccccc2Cl)n3-c2ccc(Cl)cc2)CC1)c1ccccc1F [Compound 1, N-{1-[8-(2-Chlorophenyl)-9-(4-chlorophenyl)-9H-purin-6-yl]piperidin-4-yl}-2-fluorobenzene-1-sulfonamide] | melting point: 185 to 187 °C
220 |  |  |  |  |  | Clc1ccc(-n2c(-c3sccc3Cl)nc3c(N4CCN(Cc5ccccc5Cl)CC4)ncnc32)cc1 [Compound 52, 6-[4-(2-chlorobenzyl)piperazin-1-yl]-9-(4-chlorophenyl)-8-(3-chlorothiophen-2-yl)-9H-purine] | 
18.5 | 830 | 0 | 0.000 | 46 | 17.9 | CCCCC(=O)NC1(c2ccccc2)CCN(c2ncnc3c2nc(-c2ccncc2Cl)n3-c2ccc(Cl)cc2)CC1 [Compound 93, N-{1-[9-(4-chlorophenyl)-8-(3-chloropyridin-4-yl)-9H-purin-6-yl]-4-phenylpiperidin-4-yl}pentanamide] | 
11.6 |  | 8 | 0.082 |  | 4.7 | Clc1ccc(-n2c(-c3ccccc3Cl)nc3c(N4CCN(c5ccc(OCc6ccccc6)cc5)CC4)ncnc32)cc1 [Compound 65, 6-{4-[4-(Benzyloxy)phenyl]piperazin-1-yl}-8-(2-chlorophenyl)-9-(4-chlorophenyl)-9H-purine] | Binding affinity (Ki) at hCB2 (hCB2; displacement of [3H]CP55940, CHO-K1 membranes, average of 3-6 measurements): inactive
42.2 | 620 | 38 | 0.379 | 51 | 12.1 | CCCCC(=O)NC1CCN(c2ncnc3c2nc(-c2ccncc2C)n3-c2ccc(Cl)cc2)CC1 [Compound 90, N-{1-[9-(4-chlorophenyl)-8-(3-methylpyridin-4-yl)-9H-purin-6-yl]piperidin-4-yl}pentanamide] | 
106 | 4100 |  |  | 98 |  | CN(Cc1ccccc1)C1CCN(c2ncnc3c2nc(-c2ccccc2Cl)n3-c2ccc(Cl)cc2)CC1 [Compound 39, N-benzyl-1-[8-(2-chlorophenyl)-9-(4-chlorophenyl)-9H-purin-6-yl]-N-methylpiperidin-4-amine] | Ki (hCB1 [2]; [3]): 42 nM
100 |  |  |  |  |  | Clc1ccc(-n2c(-c3ccccc3Cl)nc3c(N4CCC(Nc5ccncc5)CC4)ncnc32)cc1 [Compound 36, N-{1-[8-(2-chlorophenyl)-9-(4-chlorophenyl)-9H-purin-6-yl]piperidin-4-yl}pyridin-4-amine] | 

SMILES | Kb (hCB1 [1]) [nM] | Ki (hCB2) [nM] | % Permeable (MDCK) [%] | MDCK BBB Assay (Basolateral/Apical Peak Area Ratio) Mean (MDCK) | CB2 Ki/CB1 Ki selectivity ratio (hCB1 [2]) | Ki (hCB1 [2]) [nM] | further results
CC(C)CS(=O)(=O)N1CCN(c2ncnc3c2nc(-c2ccccc2Cl)n3-c2ccc(Cl)cc2)CC1 [Compound 82, 8-(2-Chlorophenyl)-9-(4-chlorophenyl)-6-{4-[(2-methylpropyl)sulfonyl]piperazin-1-yl}-9H-purine] | 0.2 | 2840 | 0 |  |  |  | Ki (hCB1 [2]; [3]): 2 nM
CCCCS(=O)(=O)N1CCN(c2ncnc3c2nc(-c2ccccc2Cl)n3-c2ccc(Cl)cc2)CC1 [Compound 81, 8-(2-Chlorophenyl)-9-(4-chlorophenyl)-6-[4-(butylsulfonyl)piperazin-1-yl]-9H-purine] | 0.4 |  | 5 | 0.053 | 871 |  | Ki (hCB2; [4]): 505 nM; Ki (hCB1 [2]; [3]): 0.6 nM
CC(C)S(=O)(=O)N1CCN(c2ncnc3c2nc(-c2ccccc2Cl)n3-c2ccc(Cl)cc2)CC1 [Compound 80, 8-(2-Chlorophenyl)-9-(4-chlorophenyl)-6-{4-[(1-methylethyl)sulfonyl]piperazin-1-yl}-9H-purine] | 1.5 |  | 0 | 0.000 |  |  | Ki (hCB2; [4]): 978 nM; Ki (hCB1 [2]; [3]): 1.4 nM
